Data on 24 compounds can be found in US20110263664A1, “Inhibitors of PIM-1 Protein Kinases, Compositions and Methods for Treating Prostate Cancer” (MUSC FOUNDATION FOR RESEARCH DEVELOPMENT, priority 2007, published 2011).

One may read the IC50 as the concentration that gives 50% inhibition.

Data set [1] concerns the target T1, PIM1 (Homo sapiens, UniProt P11309). The experiment in a line: Pim-1 protein kinase assay (Procedure 1), Table 1. It counts as biochemical. Further details: purchased Upstate 14-573.
Excerpt: The following in vitro procedure can be used to evaluate compounds for inhibition of Pim-1 protein kinase.
The target of a further data set is PIM2 (Homo sapiens, UniProt Q9P1W9). The experiment in a line: Pim-2 kinase IC50, Table 2. It counts as biochemical.
PIM2, sequence (Q9P1W9 whole entry): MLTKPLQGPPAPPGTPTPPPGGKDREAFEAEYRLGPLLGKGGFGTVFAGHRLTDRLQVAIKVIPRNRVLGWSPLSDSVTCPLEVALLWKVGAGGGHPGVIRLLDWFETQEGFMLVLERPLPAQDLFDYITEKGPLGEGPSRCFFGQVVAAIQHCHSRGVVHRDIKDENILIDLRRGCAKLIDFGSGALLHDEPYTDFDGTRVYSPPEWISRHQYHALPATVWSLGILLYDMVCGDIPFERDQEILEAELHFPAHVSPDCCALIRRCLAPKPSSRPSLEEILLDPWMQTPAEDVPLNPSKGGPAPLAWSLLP
Data set [2] deals with Human prostate cancer PC3 cells. Put plainly: Cytotoxicity assay (MTS), PC3 cells, Table 3. It counts as cell-based. The settings on record: PC-3, 48 hours, read-out: IC50 (PC3 cell assay).
Description: Varying concentrations of the test compounds are then added to each well, and the plates were incubated for an additional 48 hours. The number of surviving cells was determined by the MTS assay (Promega). The percentage of cells killed was calculated as the percentage decrease in MTS metabolism compared with control cultures.
Another data set concerns DU145 and MV7;11 cells. The experiment in a line: Cell cycle distribution by FACS. Particulars: 5 μM for 72 hours; DU145 in 2% serum, MV7;11 in 10% serum; compared to DMSO control.
In the next data set the test system is MV7;11 and FDCP1 cells. The experiment in a line: Combined treatment with rapamycin, growth inhibition. It counts as cell-based.
Another data set concerns AMPK protein kinase. Put plainly: Phosphorylation of AMPK on threonine 172. The text has this: This phosphorylation is known to activate this protein kinase and lead to the phosphorylation of TSC2 and the inhibition of TOR protein kinase (Molecular Cell 30: 214-226, 2008; Oncogene 26: 1616-1625, 2007).
Data set [3] has as its system phosphoBad in FDCP1-Pim cells. Put plainly: PhosphoBad time course in FDCP1-Pim cells. It counts as cell-based, murine. The settings on record: 5 μM, serum and IL-3-free conditions, by 2 hours, compared to DMSO-treated cells.
For data set [4], the system named is p27^Kip1 in K562, U937, and MV7;11 cells. The experiment in a line: p27Kip1 location in cytoplasmic and nuclear fractions. It counts as cell-based, human. Particulars: 72 hours, media containing 10% FCS; all three cell lines. How it is done: To examine p27^Kip1 location, K562, U937 or MV7;11 cells (1×10^5/mL) were incubated for 72 hours in complete media with DMSO or a disclosed Pim-1 and/or Pim-2 inhibitor. Cells were harvested, washed in PBS and cytoplasmic and nuclear fractions were prepared using the NE-PER Nuclear and Cytoplasmic Extraction kit (Pierce Biotechnology, Rockford, Ill.) according to the manufacturer's instructions, followed by SDS-PAGE and western blotting with anti-p27^Kip1 antibody, as described above. To measure Cdk2 activity, this protein was immunoprecipitated from K562, U937, or MV7;11 cells treated for 72 hours with Pim inhibitors, lysed in buffer (50 mM Tris-HCl, pH 8.0 containing 5 mM EDTA, 150 mM NaCl, 1% NP-40 and 1 mM phenylmethylsulfonyl fluoride) followed by the addition of Cdk2 antibody (2 μg). Samples were then rotated overnight at 4° C., and Cdk2 was immunoprecipitated by the addition of protein G beads (Pierce Biotechnology) with rotation at room temperature for 1 h. […] Reactions were allowed to proceed for 15 minutes at 37° C., and then analyzed by SDS-PAGE. ^32P-Phosphorylated histone H1 was visualized by autoradiography, and Cdk2 protein levels detected by Western blotting, as described above.

Data set [5] concerns PC-3 prostate cancer cell. Put plainly: PC-3 cell viability with or without rapamycin. It counts as cell-based, human. The settings on record: administered alone, doses of 1 and 3 μM, after 36 hours. From the text:
FIG. 5 depicts the results of these experiments.

Data set [6] deals with 4E-BP1 phosphorylation in FDCP1 cells.
In a further data set the test system is 22Rv1-Pim cells. The experiment in a line: Apoptosis (sub G1, FACS) in 22Rv1-Pim cells. Particulars: 5 μM, 72 hours, serum-free conditions.
The test system of data set [7] is PC3, DU145, LNCaP, U937, K582, and MV7;11 cell lines. The experiment in a line: Growth inhibition of cancer cell lines, 72 hours. It counts as cell-based, human. Particulars: treatment for 72 hours in culture.
The test system of data set [8] is Cdk2 activity in K562 cells. The settings on record: K562 cells treated 72 hours, 10% FCS; histone H1 as substrate.
For data set [9], the target named is T1, PIM1. Particulars: 5 μM, in vitro.
The target in data set [10] is T1, PIM1. The experiment in a line: biochemical.
Data set [11] has as its system phosphoBad in 22Rv1-Pim and DU145-Pim cells. Put plainly: PhosphoBad level by Western blotting in Pim-1 transfected prostate cancer cells. The settings on record: 1 hour, serum-free conditions; total Bad constant. It counts as cell-based, human. (A western blot detects proteins with antibodies after separation by electrophoresis.)

Molecules are shown by their SMILES. Where two headings read alike, the source gives them in different places. A value given as a limit tells only on which side of the number the result lay.

T1 sequence (P11309 whole entry): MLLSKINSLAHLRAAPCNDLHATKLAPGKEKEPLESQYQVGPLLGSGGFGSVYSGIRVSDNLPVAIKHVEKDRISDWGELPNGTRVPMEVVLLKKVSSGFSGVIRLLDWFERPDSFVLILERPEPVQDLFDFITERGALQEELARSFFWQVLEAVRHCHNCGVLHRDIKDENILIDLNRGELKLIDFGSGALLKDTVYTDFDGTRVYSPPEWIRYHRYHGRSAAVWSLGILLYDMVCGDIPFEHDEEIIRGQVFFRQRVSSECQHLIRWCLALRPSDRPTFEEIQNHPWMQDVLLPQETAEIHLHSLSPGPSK

In the case of `O=C1NC(=O)/C(=C/c2cccc(F)c2)S1` [Compound D1], the IC50 at PIM1 [1] was found to be 130 ± 60 nM; against PIM2, 400 ± 200 nM.
`O=C1NC(=O)/C(=C/c2cccc(Cl)c2)S1` [Compound D2]: the IC50 against PIM1 [1] amounted to 600 ± 510 nM; on PIM2, 400 ± 150 nM.
For `O=C1NC(=O)/C(=C/c2cccc(Br)c2)S1` [Compound D3], the results for the concentration for half-maximal inhibition (IC50) (at PIM1 [1]; against PIM2; in [2]) were 45000 ± 11000 nM, 90 ± 40 nM and 58 ± 11 µM, respectively.
Consider `Cc1cccc(/C=C2\SC(=O)NC2=O)c1` [Compound D4], for which the IC50 is 160 ± 40 nM at PIM1 [1] and 100 ± 100 nM against PIM2.
Regarding `O=C1NC(=O)/C(=C/c2cccc(C(F)(F)F)c2)S1` [Compound D5, 5-(3-trifluoromethylbenzylidene)thiazolidine-2,4-dione], the cell cycle arrest result in the data set with DU145 and MV7;11 cells was “significant G1 cell cycle arrest”. Further, in the data set on MV7;11 and FDCP1 cells, the “growth inhibition, combined treatment with rapamycin” value is “significant growth inhibition”. In the data set on AMPK protein kinase, the “phosphorylation of AMPK on threonine 172” value is “increase the phosphorylation”. In addition, in data set [3], the phosphoBad levels result is “reduction in phosphoBad levels”. In addition, in [4], the “amount of p27^Kip1 in nuclear fractions” value was “increase in the amount of p27^Kip1 in nuclear fractions”. In addition, the “inhibition of cell viability” value in data set [5] is on record as 40%. For the same compound, in data set [6] (1 hour, absent rapamycin), the “concentration at which phosphorylation of 4E-BP1 was inhibited” value lay in the range of 1.6 to 3.2 µM. The “effect on rapamycin inhibition of 4E-BP1 phosphorylation” value in data set [6] (with or without serum, combined with rapamycin) is “enhanced the ability of rapamycin to inhibit 4E-BP1 phosphorylation”. Besides, the IC50 against PIM2 was 100 ± 300 nM. Moreover, the “sub G1 population” value in the data set on 22Rv1-Pim cells is listed as 38.1%. For the same compound, the “growth inhibition of cancer cell lines” value in data set [7] was “growth inhibition of each cell line”.
On to `COc1cccc(/C=C2\SC(=O)NC2=O)c1` [Compound D6], for which the results for the IC50 (against PIM1 [1]; in data set [2]) were 650 ± 50 nM and 73 ± 13 µM, respectively.
Regarding `O=C1NC(=O)/C(=C/c2cccc(OC(F)(F)F)c2)S1` [Compound D7], the values for the 50% inhibitory concentration (IC50) at PIM1 [1] and at PIM2 were 67 ± 61 nM and 900 ± 400 nM, respectively.
As to `O=C1NC(=O)/C(=C/c2cccc(OC(F)(F)C(F)F)c2)S1` [Compound D8], the 50% inhibitory concentration (IC50) on PIM1 [1] stood at 73 ± 53 nM; against PIM2 it was 2200 ± 1100 nM.
Consider `O=C1NC(=O)/C(=C/c2ccc(F)cc2)S1` [Compound D9], for which the values for the IC50 (on PIM2; in data set [2]) were 2300 ± 100 nM and 93 ± 5 µM, respectively.
Regarding `O=C1NC(=O)/C(=C/c2ccc(Cl)cc2)S1` [Compound D10], the IC50 against PIM1 [1] was 40 ± 30 nM; on PIM2, 200 ± 100 nM.
Turning to `O=C1NC(=O)/C(=C/c2ccc(Br)cc2)S1` [Compound D11], at PIM1 [1], half-maximal inhibition (IC50) required 28000 ± 23000 nM.
Regarding `Cc1ccc(/C=C2\SC(=O)NC2=O)cc1` [Compound D12], the values for the IC50 (against PIM2; in [2]) were 4400 ± 200 nM and over 100 µM, respectively.
Consider `CCc1ccc(/C=C2\SC(=O)NC2=O)cc1` [Compound D13], for which the IC50 stood at 600 ± 100 nM against PIM1 [1] and 300 ± 100 nM against PIM2.
In the case of `COc1ccc(/C=C2\SC(=O)NC2=O)cc1` [Compound D14], the IC50 against PIM1 [1] was 5100 ± 5000 nM; against PIM2 it was 300 ± 100 nM; in [2], 11 ± 1 µM.
Consider `CCOc1ccc(/C=C2\SC(=O)NC2=O)cc1` [Compound D15], for which the IC50 on PIM1 [1] worked out at 170 ± 40 nM; at PIM2 it was 43000 ± 18000 nM; in data set [2], 65 ± 17 µM.
Regarding `CCCOc1ccc(/C=C2\SC(=O)NC2=O)cc1` [Compound D16, 5-(4-propoxybenzylidene)thiazolidine-2,4-dione], in the data set on DU145 and MV7;11 cells, the cell cycle arrest entry is “significant G1 cell cycle arrest”. Besides, the “growth inhibition, combined treatment with rapamycin” value in the data set with MV7;11 and FDCP1 cells (72 hours, rapamycin 5 nM plus compound 5 μM, MV7;11 and FDCP1 cells) is recorded as “significant growth inhibition”. In addition, the “decreased Cdk2 activity” value in [8] was about 60%. Besides, the IC50 at PIM1 [1] amounted to 150 ± 110 nM; on PIM2, 20 ± 10 nM; against PIM1 [10], 63 ± 11 nM. In addition, the “phosphorylation of AMPK on threonine 172” value in the data set on AMPK protein kinase is listed as “increase the phosphorylation”. Moreover, the “amount of p27^Kip1 in nuclear fractions” value in data set [4] is given as “increase in the amount of p27^Kip1 in nuclear fractions”. Besides, the “phosphorylation of p27^Kip1 by Pim-1” value at PIM1 [9] is “reduce phosphorylation”. Further, the “growth inhibition of cancer cell lines” value in [7] was “growth inhibition of each cell line”. For the same compound, the “level of phosphoBad” value in [11] is “decreased in a dose-dependent manner”.
For the compound `CC(C)c1ccc(/C=C2\SC(=O)NC2=O)cc1` [Compound D17], the results for the IC50 against PIM1 [1] and on PIM2 were 40 ± 30 nM and over 100000 nM, respectively.
For `O=C1NC(=O)/C(=C/c2ccc(C(F)(F)F)cc2)S1` [Compound D18], in that order: 330 ± 130 nM and 80 ± 20 nM.
Take `O=C1NC(=O)/C(=C/c2ccc(OC(F)(F)F)cc2)S1` [Compound D19]: the IC50 came out at 500 ± 200 nM against PIM2 and 48 ± 27 µM in data set [2].
Turning to `CN(C)c1ccc(/C=C2\SC(=O)NC2=O)cc1` [Compound D20], the concentration for half-maximal inhibition (IC50) is 6000 ± 1700 nM against PIM1 [1], 100 ± 100 nM against PIM2 and 66 ± 13 µM in [2].
`O=C1S/C(=C\c2ccc(F)cc2)C(=O)N1Cc1ccccc1F` [Compound D27]: the IC50 is 45000 ± 15000 nM on PIM1 [1] and over 100 µM in data set [2].
For the compound `O=C1NC(=O)N(Cc2ccccc2)/C1=C\c1ccc(Br)cc1` [Compound D30], the IC50 on PIM1 [1] amounted to 58000 ± 7500 nM.
On the same count and under the same terms, in the case of `CN(C)c1ccc(/C=C2/C(=O)NC(=O)N2Cc2ccccc2)cc1` [Compound D31] it was 78000 ± 7500 nM.
On to `COc1cccc(/C=C2/C(=O)NC(=O)N2Cc2ccccc2)c1` [Compound D32], for which the IC50 in data set [2] worked out at 80 ± 15 µM.
